Where two headings read alike, the source gives them in different places.
Legend:
Enterobacter cloacae P99 = assay: microbe, parasite or virus in culture; type: cell-based; details: P99, 18 h, read-out: Minimum Inhibitory Concentration: MIC
test strains = assay: In vitro antibacterial activity, overall finding, Biological Example 4; type: cell-based; details: Tables 31 and 32
Method: (§1) In order to determine the antibacterial activitiers of the E- and Z-isomner of the compound 180 which were separated in Example 203, and of 7- (4-aminomethyl-3-methyloxylminopyrrolidin-1-yl)-1-cyclopropyl-6-fluoro-4-oxo-1,4-dihydro-1,8-naphthyridine-3-carboxylic acid methanesulfonate prepared in Example 204, in vitro antibacterial activities of them were measured using agar medium dilution method. The results were as described in the following Tables 31 and 32.

Seratis marsecence 1826E = assay: In vitro antibacterial activity (MIC, agar medium dilution), Biological Example 4; type: cell-based; details: 18 h, Table 32, ratio of weight, read-out: Minimum Inhibitory Concentration: MIC
Method: as §1

[1] = test system: Acinetobacter calcoaceticus 15473; assay: as above; type: cell-based; details: 18 h; Acinetobacter calcoaceticus 15473, Table 32, ratio of weight; read-out: Minimum Inhibitory Concentration: MIC
[2] = test system: Escherichia coli TEM5 3739E; assay: as above; type: cell-based; details: TEM53739E, 18 h, read-out: Minimum Inhibitory Concentration: MIC
[3] = test system: Citrobacter diversus 2046E; assay: as above; type: cell-based; details: Citrobacter koseri, 18 h, Table 32, ratio of weight, read-out: Minimum Inhibitory Concentration: MIC
physchem = details: phosphate buffered solution
Escherichia coli 851E = assay: In vitro antibacterial activity (MIC, agar medium dilution), Biological Example 4; type: cell-based; details: 18 h, Table 32, ratio of weight, read-out: Minimum Inhibitory Concentration: MIC
[4] = test system: Staphylococcus aureus 241; assay: as above; type: cell-based; details: Staphylococcus aureus, 241, 18 h, Staphylococcus aureus 241, Table 32, ratio of weight; read-out: Minimum Inhibitory Concentration: MIC
Proteus vulgaris 6059 = assay: as above; type: cell-based; details: 18 h; Proteus vulgaris 6059, Table 32, ratio of weight; read-out: Minimum Inhibitory Concentration: MIC
Bacillus subtilis 6633 = assay: as above; type: cell-based; details: 18 h; Bacillus subtilis 6633, Table 32, ratio of weight; read-out: Minimum Inhibitory Concentration: MIC
[5] = test system: Pseudomonas aeruginosa 1912E; assay: as above; type: cell-based; details: 18 h, Table 32, ratio of weight, read-out: Minimum Inhibitory Concentration: MIC
[6] = test system: Klebsiella aerogenes 1082E; assay: as above; type: cell-based; details: 18 h, Table 32, ratio of weight, read-out: Minimum Inhibitory Concentration: MIC
[7] = test system: Salmonella thypimurium 14028; assay: as above; type: cell-based; details: 18 h; Salmonella thypimurium 14028, Table 32, ratio of weight; read-out: Minimum Inhibitory Concentration: MIC
Escherichia coli 3190Y = assay: In vitro antibacterial activity (MIC, agar medium dilution), Biological Example 4; type: cell-based; details: 18 h, Table 32, ratio of weight, read-out: Minimum Inhibitory Concentration: MIC
[8] = test system: Staphylococcus aureus giorgio; assay: as above; type: cell-based; details: 18 h, Table 32, ratio of weight, read-out: Minimum Inhibitory Concentration: MIC
Staphylococcus aureus 77 = assay: as above; type: cell-based; details: 18 h; Staphylococcus aureus 77, Table 32, ratio of weight; read-out: Minimum Inhibitory Concentration: MIC
[9] = type: physicochemical
Escherichia coli 10536 = assay: In vitro antibacterial activity (MIC, agar medium dilution), Biological Example 4; type: cell-based; details: Escherichia coli, 10536, 18 h, read-out: Minimum Inhibitory Concentration: MIC, Escherichia coli 10536, Table 32, ratio of weight
[10] = test system: Staphylococcus aureus 6538p; assay: as above; type: cell-based; details: 18 h, Table 32, ratio of weight without considering molecular weight, read-out: Minimum Inhibitory Concentration: MIC
[11] = test system: Enterobacter cloacae 1194E; assay: microbe, parasite or virus in culture; type: cell-based; details: 18 h, read-out: Minimum Inhibitory Concentration: MIC
Micrococcus luteus 9341 = assay: In vitro antibacterial activity (MIC, agar medium dilution), Biological Example 4; type: cell-based; details: 18 h; Micrococcus luteus 9341, Table 32, ratio of weight; read-out: Minimum Inhibitory Concentration: MIC
[12] = Antibacterial activity of methanesulfonate and its hydrate; type: cell-based
[13] = test system: Staphylococcus epidermidis 178; assay: In vitro antibacterial activity (MIC, agar medium dilution), Biological Example 4; type: cell-based; details: 18 h; Staphylococcus epidermidis 178, Table 32, ratio of weight; read-out: Minimum Inhibitory Concentration: MIC
[14] = test system: Escherichia coli TEM9 2639E; assay: as above; type: cell-based; details: TEM92639E, 18 h, read-out: Minimum Inhibitory Concentration: MIC
[15] = test system: Pseudomonas aeruginosa 10145; assay: as above; type: cell-based; details: Pseudomonas aeruginosa, 10145, 18 h, Pseudomonas aeruginosa 10145, Table 32, ratio of weight; read-out: Minimum Inhibitory Concentration: MIC
[16] = test system: Streptococcus faecalis 29212; assay: as above; type: cell-based; details: Enterococcus faecalis, 29212, 18 h, Streptococcus faecalis 29212, Table 32, ratio of weight; read-out: Minimum Inhibitory Concentration: MIC
[17] = test system: Klebsiella aerogenes 1976E; assay: as above; type: cell-based; details: 18 h, Table 32, ratio of weight, read-out: Minimum Inhibitory Concentration: MIC
[18] = test system: Staphylococcus epidermidis 887E; assay: as above; type: cell-based; details: 18 h, read-out: Minimum Inhibitory Concentration: MIC, Staphylococcus epidermidis 887E, Table 32, ratio of weight
[19] = test system: Escherichia coli TEM3 3455E; assay: as above; type: cell-based; details: TEM33455E, 18 h, read-out: Minimum Inhibitory Concentration: MIC, Escherichia coli TEM3 3455E, Table 32, ratio of weight

Q: Which results are given for `CON=C1CN(c2nc3c(cc2F)c(=O)c(C(=O)O)cn3C2CC2)CC1CN.CS(=O)(=O)O` (centres unmarked) [Methanesulfonate, 7-(4-aminomethyl-3-methyloxyiminopyrrolidin-1-yl)-1-cyclopropyl-6-fluoro-4-oxo-1,4-dihydro-1,8-naphthyridine-3-carboxylic acid methanesulfonate]?
A: MIC (Enterobacter cloacae P99): 0.016 µg/mL; antibacterial activity (test strains): excellent antibacterial activity; MIC (Seratis marsecence 1826E): 0.13 µg/mL; MIC [1]: 0.031 µg/mL; MIC [2]: 0.13 µg/mL; MIC [3]: 0.031 µg/mL; solubility (physchem; pH 2, Water Solubility, phosphate buffered solution (pH 2)): > 20 mg/mL; solubility (physchem; pH 7, Water Solubility, phosphate buffered solution (pH 7)): > 30 mg/mL; MIC (Escherichia coli 851E): 0.016 µg/mL; MIC [4]: 4 µg/mL; MIC (Proteus vulgaris 6059): 0.25 µg/mL; MIC (Bacillus subtilis 6633): 0.016 µg/mL; MIC [5]: 0.25 µg/mL; MIC [6]: 0.031 µg/mL; MIC [7]: 0.031 µg/mL; water solubility compared with other salts and free form: superior to that of the tartarate, the sulfurate, and the p-toluenesulfonate as well as the free form; MIC (Escherichia coli 3190Y): 0.008 µg/mL; MIC [8]: 0.016 µg/mL; MIC (Staphylococcus aureus 77): 0.031 µg/mL; solubility [9]: excellent solubility; MIC (Escherichia coli 10536): 0.008 µg/mL; MIC [10]: 0.016 µg/mL; MIC [11]: 0.031 µg/mL; MIC (Micrococcus luteus 9341): 0.13 µg/mL; antibacterial activity compared with the free form [12]: the same potent antibacterial activity as the free form; MIC [13]: 4 µg/mL; MIC [14]: 0.031 µg/mL; MIC [15]: 0.5 µg/mL; MIC [16]: 0.13 µg/mL; MIC [17]: 0.13 µg/mL; MIC [18]: 0.016 µg/mL; MIC [19]: 0.25 µg/mL
